{"source": "patent US7803735B2", "about": "“Hydroconversion processes employing multi-metallic catalysts and method for making thereof” (Chevron U.S.A. Inc., priority 2007, dated 2010)", "origin": "cited, not measured here", "test_system": "rats", "conditions": "single oral dose to rats; chelating agent (ligand) L"}
{"smiles": "O=CC(=O)O", "note": "[glyoxylic]", "values": [{"measurement": "LD50", "result": 3000, "unit": "mg/kg"}]}
